Data published in patent US10894805B2, “Prodrugs of the selective progesterone receptor modulator (SPRM) (11β,17β)-17-Hydroxy-11-[4-(methylsulphonyl)phenyl] -17-(pentafluoroethyl)estra-4,9-dien-3-one” (BAYER PHARMA AKTIENGESELLSCHAFT, priority 2016, dated 2021).
One block for each molecule: values may come before it.

How the values were obtained:
[1] = tested on: Progesterone receptor; conditions: DeManno et al., Steroids 68 (2003); cited from earlier work
[2] = Plasma concentrations and pharmacokinetic parameters of Compounds 1 and 2 in rats after oral Compound 1; format: in vivo, rat; conditions: for Cmax: po
Protocol: Under the same conditions as described in Example 2 three single dosages of Compound 1 (0.2, 1.0 and 5 mg/kg/day) were administered to rats. Blood samples were taken from the rats at several time-points (1, 2, 4, 7 and 24 h, N=3 animals at each time-point), to allow for calculation of AUC (0-24) and Cmax of compound 1 and compound 2 in rat plasma. The plasma samples were stored at −15° C. until analysis. Compound 1 and 2 were determined in plasma after protein precipitation with acetonitrile containing the internal standards for compound 1 and compound 2. The supernatant was analyzed by separation employing high-pressure liquid chromatography and tandem mass spectrometric detection. The lower limit of quantitation (LLOQ) for Compound 1 was 1.00 μg/L, the linear range between 1.00 and 200 μg/L. The lower limit of quantitation (LLOQ) for Compound 2 was 0.200 μg/L, the linear range between 0.200 and 200 μg/L. A sample volume of 0.1 mL plasma was used. The precision for Compound 1 ranged between 0.97 and 3.73%, accuracy between 99.8 and 101.3%, for Compound 2 precision ranged between 2.01 and 6.19%, accuracy between 92.3 and 96.6% calculated from the study quality control samples.

[3] = In vitro metabolism of 14C-labeled Compound 1 in human liver microsomes; format: in vitro ADME
Protocol: Human liver microsomes were incubated with (3α,11β,17β)-11-[4-(^14C-methylsulfonyl)phenyl]-17-(pentafluoroethyl)estra-4,9-diene-3,17-diol (Compound 1).
(§1) The incubation mixture containing buffer, reconstituting system and microsomal protein was preincubated at 37° C. for 3 min. Incubation was started by the addition of the solution containing (3α,11β,17β)-11-[4-(methylsulfonyl)phenyl]-17-(pentafluoroethyl)estra-4,9-diene-3,17-diol (Compound 1). The samples were incubated at 37° C. in a continuously operating shaking water bath. The incubation reaction was stopped by the addition of 160 μL acetonitrile. The stopped incubations were centrifuged for 10 minutes at 13000 rpm (4° C.) and stored at −18° C. until they were subsequently analysed. 50 μL of the supernatant was examined by chromatography and detected by radiometry and mass spectrometry.

[4] = target: recombinant human CYP3A4 (Homo sapiens, UniProt P08684); test: In vitro metabolism of 14C-labeled Compound 1 in recombinant human CYP3A4 enzyme; format: in vitro ADME
Chain of recombinant human CYP3A4 (P08684 whole entry): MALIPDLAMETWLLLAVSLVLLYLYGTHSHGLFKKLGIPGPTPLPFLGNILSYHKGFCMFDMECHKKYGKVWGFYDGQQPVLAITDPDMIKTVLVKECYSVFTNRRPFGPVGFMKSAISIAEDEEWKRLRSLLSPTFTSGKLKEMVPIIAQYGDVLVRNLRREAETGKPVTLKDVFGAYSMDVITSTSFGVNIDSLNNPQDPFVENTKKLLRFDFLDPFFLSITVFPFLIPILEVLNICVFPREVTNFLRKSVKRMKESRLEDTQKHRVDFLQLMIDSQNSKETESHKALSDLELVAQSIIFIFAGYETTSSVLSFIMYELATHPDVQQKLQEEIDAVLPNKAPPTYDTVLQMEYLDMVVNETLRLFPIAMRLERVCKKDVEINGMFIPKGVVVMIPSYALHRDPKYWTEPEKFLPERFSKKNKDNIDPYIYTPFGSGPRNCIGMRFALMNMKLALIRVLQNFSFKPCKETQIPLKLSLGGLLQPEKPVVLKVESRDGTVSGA
Protocol: Recombinant human CYP3A4 was incubated with (3α,11β,17β)-11-[4-(^14C-methylsulfonyl)phenyl]-17-(pentafluoroethyl)estra-4,9-diene-3,17-diol (Compound 1).
The incubation mixture containing buffer, reconstituting system and CYP3A4 protein was prepared and given into a 37° C. shaking water bath. Incubation was started by the addition of the solution containing (3α,11β,17β)-11-[4-(methylsulfonyl)phenyl]-17-(pentafluoroethyl)estra-4,9-diene-3,17-diol (Compound 1). The samples were incubated at 37° C. in a continuously operating shaking water bath. 200 μL of the incubation mixture were removed after incubation time and the reaction was stopped by the addition of 120 μL acetonitrile on an ice bath. The stopped incubations were centrifuged for 10 minutes at 12000 rpm (7° C.). After removing of the supernatant from the protein pellet the supernatant was stored at −20° C. until they were subsequently analysed. 50 μL of the supernatants was examined by chromatography and detected by radiometry and mass spectrometry.

[5] = target: T1, human progesterone receptor A (Homo sapiens, UniProt P06401); test: PR-A transactivation assay in SK-N-MC cells (method as described in WO2011/009531); format: cell-based
T1 construct: expressed in transfected cells; host or cells: SK-N-MC (human neuroblastoma cells), stably transfected
T1 sequence (P06401 1-769 isoform P06401-2): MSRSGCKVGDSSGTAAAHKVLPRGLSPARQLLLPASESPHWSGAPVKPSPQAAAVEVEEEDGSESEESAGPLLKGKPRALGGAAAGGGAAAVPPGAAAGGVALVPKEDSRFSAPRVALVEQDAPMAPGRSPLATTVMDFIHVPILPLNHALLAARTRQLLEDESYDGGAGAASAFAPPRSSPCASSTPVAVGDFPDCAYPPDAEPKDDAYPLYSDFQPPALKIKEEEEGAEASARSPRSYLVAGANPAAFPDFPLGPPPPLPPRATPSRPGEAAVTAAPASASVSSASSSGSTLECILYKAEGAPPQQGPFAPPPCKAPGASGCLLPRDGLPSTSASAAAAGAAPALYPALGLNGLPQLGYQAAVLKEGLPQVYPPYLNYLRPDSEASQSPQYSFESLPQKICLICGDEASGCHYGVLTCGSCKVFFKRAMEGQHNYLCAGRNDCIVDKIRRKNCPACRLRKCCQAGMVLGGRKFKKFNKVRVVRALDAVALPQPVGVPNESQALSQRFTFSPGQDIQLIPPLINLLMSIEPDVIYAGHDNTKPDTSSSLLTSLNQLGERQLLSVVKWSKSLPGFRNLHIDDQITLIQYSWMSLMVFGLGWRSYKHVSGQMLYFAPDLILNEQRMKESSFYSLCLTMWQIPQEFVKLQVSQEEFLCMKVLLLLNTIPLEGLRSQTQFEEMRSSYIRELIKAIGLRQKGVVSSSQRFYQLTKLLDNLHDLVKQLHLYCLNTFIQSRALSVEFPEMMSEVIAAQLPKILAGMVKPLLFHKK
Protocol: (§2) SK-N-MC cells (human neuroblastoma cells), which have been stably transfected with plasmids, which express the human progesterone receptor B ([…]) or the human progesterone receptor A (pRChPR-A-neo) and a reporter construct (pMMTV-LUC), were incubated for 24 hours either in the absence (negative control) or in the presence of increasing amounts of the respective Compound 2 (0.01 nmol/l, 0.1 nmol/l, 1 nmol/l, 10 nmol/l, 100 nmol/land […]), in order to determine the agonistic efficacy. As positive control of reporter gene induction, the cells were treated with the synthetic gestagen promegestone (0.01 nmol/l, 0.1 nmol/l, 1 nmol/l, 10 nmol/l, 100 nmol/l and […]). For determination of the antagonistic activity, the cells were treated with 0.1 nmol/l promegestone and additionally with increasing amounts of the respective test compound (0.01 nmol/l, 0.1 nmol/l, 1 nmol/l, 10 nmol/l, 100 nmol/l and […]). The activity of the LUC reporter gene (LUC=luciferase) was determined in the cell lysates and was measured as RLU (relative light units).

[6] = target: T2, human progesterone receptor B (Homo sapiens, UniProt P06401); test: PR-B transactivation assay in SK-N-MC cells (method as described in WO2011/009531); format: cell-based
T2 construct: expressed in transfected cells; host or cells: SK-N-MC (human neuroblastoma cells), stably transfected
T2 sequence (P06401 1-933): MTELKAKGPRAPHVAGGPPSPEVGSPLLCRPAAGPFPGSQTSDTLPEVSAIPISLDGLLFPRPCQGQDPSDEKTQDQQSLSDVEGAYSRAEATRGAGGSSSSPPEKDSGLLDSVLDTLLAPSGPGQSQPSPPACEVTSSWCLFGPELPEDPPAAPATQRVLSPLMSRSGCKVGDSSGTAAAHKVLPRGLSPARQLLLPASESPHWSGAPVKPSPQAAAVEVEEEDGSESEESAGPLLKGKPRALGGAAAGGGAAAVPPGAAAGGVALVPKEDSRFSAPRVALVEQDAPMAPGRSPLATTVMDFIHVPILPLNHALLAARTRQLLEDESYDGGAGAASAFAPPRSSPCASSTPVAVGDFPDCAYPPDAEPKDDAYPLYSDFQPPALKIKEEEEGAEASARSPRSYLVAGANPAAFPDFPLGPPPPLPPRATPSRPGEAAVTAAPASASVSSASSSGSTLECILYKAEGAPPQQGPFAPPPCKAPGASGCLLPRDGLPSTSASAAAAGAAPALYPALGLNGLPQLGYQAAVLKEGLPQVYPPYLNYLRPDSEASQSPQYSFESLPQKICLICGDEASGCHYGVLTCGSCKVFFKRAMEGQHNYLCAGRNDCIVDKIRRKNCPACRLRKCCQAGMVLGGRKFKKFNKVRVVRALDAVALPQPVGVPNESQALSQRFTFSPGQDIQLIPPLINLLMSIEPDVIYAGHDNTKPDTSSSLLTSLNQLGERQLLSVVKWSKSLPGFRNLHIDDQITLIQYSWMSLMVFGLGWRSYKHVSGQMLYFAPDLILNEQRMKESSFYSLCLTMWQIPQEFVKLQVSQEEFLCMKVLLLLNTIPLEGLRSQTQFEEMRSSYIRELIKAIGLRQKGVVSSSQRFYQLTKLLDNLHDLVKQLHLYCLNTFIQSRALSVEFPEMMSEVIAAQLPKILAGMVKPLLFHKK
Protocol: as §2

[7] = In vitro metabolism of 14C-labeled Compound 2 in human liver cytosol; format: in vitro ADME
Protocol: Human liver cytosol was incubated with (11β,17β)-17-Hydroxy-11-[4-(methylsulphonyl)phenyl]-17-(pentafluoroethyl)estra-4,9-dien-3-one (Compound 2).
as §1, with “and cytosolic” for “and microsomal”, “containing (11β,17β)-17-Hydroxy-11-[4-(methylsulphonyl)phenyl]-17-(pentafluoroethyl)estra-4,9-dien-3-one” for “containing (3α,11β,17β)-11-[4-(methylsulfonyl)phenyl]-17-(pentafluoroethyl)estra-4,9-diene-3,17-diol”, “(Compound 2).” for “(Compound 1).”, “bath. 250 μL of the” for “bath. The”, “incubation mixture” for “incubation reaction”, “of 100” for “of 160”

[8] = Plasma concentrations of Compound 3 and its metabolite Compound 2 in rats; format: in vivo, rat
Protocol: Under the same conditions as described in Example 3, Compound 3 (5 mg/kg/day) was administered to female rats at a dose of 5 mg/kg. Blood samples were taken from the rats at several time-points (0.5, 1, 3, 6 h, N=3 animals at each time-point), to allow for calculation of AUC (0-inf) of compound 3 and compound 2 in rat plasma.
The plasma samples were stored at −15° C. until analysis. Compound 3 and compound 2 were determined in plasma after protein precipitation with acetonitrile containing the internal standards for compound 3 and compound 2. The supernatant was analyzed by separation employing high-pressure liquid chromatography and tandem mass spectrometric detection. AUC (0-inf) means Area Under the plasma Concentration vs. time curve (0-inf) from zero to infinity.

[9] = rat plasma, single p.o. dose of Compound 1, 0.2 mg/kg

SMILES: COC[C@]1(OC)CC[C@H]2[C@@H]3CCC4=CC(=O)CCC4=C3[C@@H](c3ccc(/C=N/O)cc3)C[C@@]21C [Asoprisnil (J867), Asoprisnil]
- Progesterone binding affinity, Relative molar Binding Affinity (RBA) [1]: about 299 % RBA

SMILES: COC[C@]1(OC)CC[C@H]2[C@@H]3CCC4=CC(=O)CCC4=C3[C@@H](c3ccc(/C=N/O)cc3)C[C@@]21C [Compound J912]
- Progesterone binding affinity, Relative molar Binding Affinity (RBA) [1]: about 165 % RBA

The remaining lines, values ahead:

- conversion into Compound 2 in rat ([2]; after oral Compound 1): almost completely converted
- Cmax [2, 9]: < 1 ng/mL
- Cmax ([2]; rat plasma, single p.o. dose of Compound 1, 1.0 mg/kg): 3.36 ng/mL
- Cmax ([2]; rat plasma, single p.o. dose of Compound 1, 5.0 mg/kg): 12.9 ng/mL
- Compound 1 Cmax [2, 9]: <1.00 ng/mL
- maximum concentration of remaining compound 1 in rat plasma ([2]; single oral dose of Compound 1, 5.0 mg/kg): 12.9 µg/L
- proportion of Compound 1 compared to 0 hr sample ([3]; 1 μM, 0.5 mg/mL protein, after 1 hours incubation): marked decrease
- Compound 2 formed in the incubation sample ([3]; incubation of 1 μM Compound 1, after 1 hour): large quantity
- proportion of Compound 1 compared to 0 hr sample ([4]; after 0.5 and 2 hours incubation with rhCYP3A4): marked decrease
- Compound 2 formed in the incubation sample ([4]; incubation of Compound 1 with rhCYP3A4): large quantity
- amount of compound 2 in the incubation sample ([4]; incubation of Compound 1 with rhCYP3A4, after 120 min): decreased remarkably
- Compound 1 (% of 14C-radioactivity) ([4]; incubation time with rhCYP3A4 0 h): 82%
- Compound 1 (% of 14C-radioactivity) ([4]; incubation time with rhCYP3A4 0.5 h): 52%
- Compound 1 (% of 14C-radioactivity) ([4]; incubation time with rhCYP3A4 2 h): 2.7%
SMILES: C[C@]12C[C@H](c3ccc(S(C)(=O)=O)cc3)C3=C4CC[C@@H](O)C=C4CC[C@H]3[C@@H]1CC[C@@]2(O)C(F)(F)C(F)(F)F [Compound 1, (3α,11β,17β)-11-[4-(methylsulfonyl)phenyl]-17-(pentafluoroethyl)estra-4,9-diene-3,17-diol]

- agonistic activity on PR-A [5]: no agonistic activity
- antagonism on PR-A [5]: very strong antagonist
- agonistic activity on PR-B [6]: no agonistic activity
- antagonism on PR-B [6]: very strong antagonist
- proportion of Compound 2 compared to 0 hr sample ([7]; 10 μM, 1.0 mg/mL cytosolic protein, NADPH, after 1 and 4 hours): marked decrease
- turnover of Compound 2 to Compound 1 in liver cytosol ([7]; absence of NADPH generating system as well as presence of NAD co-factor): No turnover
- Compound 1 formed in the incubation sample ([7]; incubation of 10 μM Compound 2, after 1 and 4 hours): significant quantity
SMILES: C[C@]12C[C@H](c3ccc(S(C)(=O)=O)cc3)C3=C4CCC(=O)C=C4CC[C@H]3[C@@H]1CC[C@@]2(O)C(F)(F)C(F)(F)F [Compound 2, (11β,17β)-17-Hydroxy-11-[4-(methylsulphonyl)phenyl]-17-(pentafluoroethyl)estra-4,9-dien-3-one]

- conversion into Compound 2 in rat ([8]; after oral Compound 3): partially converted
- AUC(0-inf) ([8]; po, rat plasma, single p.o. 5 mg/kg of Compound 3, female rats): 1240 ng·h/mL
SMILES: C[C@]12C[C@H](c3ccc([S@](C)(=N)=O)cc3)C3=C4CCC(=O)C=C4CCC3C1CC[C@@]2(O)C(F)(F)C(F)(F)F (stereo partly drawn) [Compound 3, (11β,17β)-17-hydroxy-11-[4-(RS-methylsulphonimidoyl)phenyl]-17-(pentafluoroethyl)estra-4,9-dien-3-one]
